According to publication PMC12074795, “Synthesis and biological evaluation of esterified anti-inflammatory drugs with ethylene glycol linkers: cytotoxicity, anti-inflammatory and antioxidant properties” (Royal Society Open Science, 2025):

How the values were obtained:
Format in all cases: biochemical
[1] = Ferric reducing antioxidant power (FRAP) test; settings: 505 nm
Procedure: (§1) The in vitro antioxidant ability of the compounds synthesized in this work was evaluated using three different assays, including (i) the ABTS radical cation reduction-decolorization test, which uses the technique of Khan et al. consisting of the reduction of the cation radical by an antioxidant through the discoloration measured by absorption at the wavelength of 734 nm; (ii) interaction with the stable free radical DPPH, based on Bassene’s method, in which the scavenging of DPPH radicals is carried out by a colorimetric method consisting of the reduction of the DPPH radical, determined by its absorption at a wavelength of 517 nm; and (iii) the FRAP test according to the protocol of Path Canada, based on the ability of a substance to reduce Fe^3+ ions to Fe^2+ ions, which, in the presence of 1,10-phenanthroline, form a red-orange complex whose optical density can be measured at 505 nm.
The Fe^3+ reduction test followed Path Canada’s protocol with some modifications, assessing the reduction of Fe^3+ ions to Fe^2+ ions, which form a red-orange complex with 1,10-phenanthroline, measurable at 505 nm. The colour intensity correlates with the amount of Fe^3+ reduced. Four solutions were prepared: 1.2 mg ml^−1 of Fe^3+ solution (1.2 mg FeCl3 in 1 ml distilled H2O), 0.2% ortho-phenanthroline solution (200 mg powder in 100 ml ethanol), 2 mg ml^−1 of gallic acid solution (2 mg gallic acid in 1 ml distilled H2O) as a positive control, stock and dilute solutions of the synthesized compounds (see §3.2.5.1). In a 96-well microplate, 180 µl distilled H2O was added to the first column and 100 µl to others for dilution. Each compound solution (20 µl at 10 mg ml^−1) was mixed with 25 µl Fe^3+ solution and incubated for 15 min in the dark at room temperature. Afterwards, 50 µl ortho-phenanthroline solution was added, followed by another 15 min incubation. Optical density was measured at 505 nm using a TECAN M200 plate reader. The positive control was treated similarly to the DPPH and ABTS assays.
(§2) The percentages of scavenging or 50% reduction were calculated using gallic acid as a standard for 100% reduction. The concentration of radical scavengers needed to neutralize 50% of free radicals, referred to as SC50, was determined using GraphPad Prism 8.0.1 software (244).

[2] = ABTS radical cation scavenging (decolorization) test; settings: 734 nm, 30 min
Procedure: as §1
The modified technique by Khan et al. was used to scavenge ABTS^+• cation radicals through a discoloration test. In this test, potassium permanganate (KMnO4) or potassium persulphate (K2S2O8) reacts with ABTS to generate a blue-green ABTS^+• radical. Antioxidants reduce this radical, leading to a measurable colour change at 734 nm, proportional to the antioxidant concentration. The antioxidant capacity is assessed by comparing the intensity reduction of ABTS colour with that of a reference antioxidant, gallic acid. Stock and dilute solutions of synthetic compounds were prepared as detailed in §3.2.5.1. Diluted concentrations were (50, 25, 12.5, 6.25, 3.125, 1.5625 and 0.78125)/Mi in mM. The ABTS solution was obtained by mixing ABTS with K2S2O8, producing an intense blue colour. The ABTS^+• radical was generated by combining equal volumes of a 4.9 mM K2S2O8 solution and a 7 mM ABTS stock solution, stored in the dark at room temperature for 15 h before use. The 7 mM ABTS stock was then diluted 20 times with distilled water. A total of 25 µl of each dilution was added to wells along with 75 µl of 0.175 mM ABTS+ solution. After 30 min of incubation in the dark at room temperature, optical densities were measured at 734 nm. Negative controls contained the ABTS reagent without synthesized compounds, while positive controls used gallic acid at the same final concentrations as the compounds. Compounds were also tested alone to assess fluorescence. The reduction of ABTS results in a blue discoloration, with lower absorbance indicating higher antioxidant activity.
as §2

[3] = DPPH radical scavenging test; settings: 517 nm, 30 min
Procedure: as §1
The DPPH radical trapping protocol is based on Bassene’s method, modified for colorimetric analysis. DPPH is a stable purple organic nitrogen radical that absorbs light at 517 nm. When an anti-free radical agent is present, DPPH is reduced to a stable yellow compound, indicated by a loss of colour between 470 and 517 nm. A 0.02% DPPH solution was made with ethanol and stored in a sealed jar in the dark. Stock solutions of the synthesized compounds were prepared by dissolving 100 mg of each in 1 ml of DMSO, and the final concentration of DMSO concentration in the first well was 0.5%. These stocks were then diluted to achieve concentrations (500, 250, 125, 62.5, 31.25, 15.625 and 7.8125)/Mi in mM (Mi: molecular weight of each synthetic compound). Each dilution (25 µl) was put to the wells and 75 µl of the DPPH solution (0.02%) were added. Optical densities were measured at 517 nm after 30 min of incubation in the dark. The negative control used DPPH alone, while the positive control used gallic acid treated with solutions of the synthesized compounds at final concentrations (50, 25, 12.5, 6.25, 3.125, 1.5625 and 0.78125)/Mi in mM. Synthesized compounds were also tested alone to assess fluorescence.
Assays were performed in duplicate, and results were averaged. Percentage inhibition (PI), reflecting the antioxidant activity related to the DPPH˙ radical scavenging effect, was calculated using the following formula:
(PI)=Acontrol−Atest/Acontrol×100,
where Acontrol = absorbance of the control sample and Atest = absorbance of the tested sample.
as §2

[4] = first replicate, read-out: FRAP SC50(1)
[5] = mean of duplicate, read-out: FRAP mean SC50
[6] = second replicate, read-out: FRAP SC50(2)
[7] = first replicate, read-out: ABTS SC50(1)
[8] = second replicate, read-out: ABTS SC50(2)
[9] = first replicate, read-out: DPPH SC50(1)
[10] = mean of duplicate, read-out: DPPH mean SC50
[11] = second replicate, read-out: DPPH SC50(2)

| SMILES | EC50 [1, 4] [µM] | EC50 [1, 5] [µM] | EC50 [1, 6] [µM] | EC50 [2, 7] [µM] | EC50 [2, 8] [µM] | EC50 [3, 9] [µM] | EC50 [3, 10] [µM] | EC50 [3, 11] [µM] | EC50 ([2]; mean of duplicate, read-out: ABTS mean SC50) [µM] |
| --- | --- | --- | --- | --- | --- | --- | --- | --- | --- |
| O=C(O)c1cc(O)c(O)c(O)c1 [gallic acid, reference compound] | 59 | 61 | 62 | 38 | 38 | 15 | 15 | 15 | – |
| CCCCCCCC/C=C\CCCCCCCC(=O)OCCOC(=O)C(C)c1ccc(CC(C)C)cc1 (centres unmarked) [Compound 5b, 2-((2-(4-isobutylphenyl)propanoyl)oxy)ethyl oleate] | 6160 | 6180 | 6200 | 2150 | 2110 | 6440 | 6480 | 6520 | 2130 |
